Measurements reported in patent US10172830B2, “Pyrazolone compounds having human neutrophil elastase inhibitory properties” (CHIESI FARMACEUTICI S.P.A., priority 2016, dated 2019).
pIC50: −log10 of the molar value.

Molecular target: T1, human neutrophil elastase (HNE) (Homo sapiens, UniProt P08246)
T1 construct: purchased Sigma E8140
T1 sequence (P08246 30-247 limits assumed): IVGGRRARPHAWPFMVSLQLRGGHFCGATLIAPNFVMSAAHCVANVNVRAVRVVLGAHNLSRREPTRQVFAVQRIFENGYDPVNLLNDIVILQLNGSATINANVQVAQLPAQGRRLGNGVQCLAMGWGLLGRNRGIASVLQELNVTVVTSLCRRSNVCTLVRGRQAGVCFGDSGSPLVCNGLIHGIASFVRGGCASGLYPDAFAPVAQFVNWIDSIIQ
Experiment: HNE enzyme assay (human neutrophil elastase enzyme activity assay)
Type: biochemical
Settings: human leukocyte elastase 0.00072 U/mL; substrate MeOSuc-Ala-Ala-Pro-Val-AMC 100 μM; 25° C. for 30 minutes; at least two separate experiments; read-out: HNE inhibition (HNE enzyme inhibition, IC50 values)
Summary of the method: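 Human leukocyte elastase (0.00072 U/mL) with 100 μM MeOSuc-AAPV-AMC in Tris/NaCl/CaCl2/Brij-35 buffer, pH 7.5, 1% DMSO, 30 min at 25 °C; stopped with soybean trypsin inhibitor. AMC fluorescence (380/460 nm) as % inhibition of control; IC50 from dose-response curves, ≥2 experiments.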

Row | pIC50 | Structure (SMILES)
1 | > 9.00 | Cn1c(-c2ccnn2-c2ccc(C#N)cc2)c(C(=O)N[C@@H]2C[C@@H]3C[N+](C)(C)C[C@@H]3C2)c(=O)n1-c1cccc(C(F)(F)F)c1 [Example 23, (3aS,5R,6aR)-5-{[2′-(4-Cyano-phenyl)-2-methyl-5-oxo-1-(3-trifluoromethyl-phenyl)-2,5-dihydro-1H,2′H-[3,3′]bipyrazolyl-4-carbonyl]-amino}-2,2-dimethyl-octahydro-cyclopenta[c]pyrrolium benzene sulphonate]
2 | > 9.00 | Cn1c(-c2ccnn2-c2ccc(C#N)cc2)c(C(=O)NC2CCN(C(=O)CC[N+](C)(C)C)CC2)c(=O)n1-c1cccc(C(F)(F)F)c1 [Example 63, 3-(4-{[2′-(4-Cyano-phenyl)-2-methyl-5-oxo-1-(3-trifluoromethyl-phenyl)-2,5-dihydro-1H,2′H-[3,3′]bipyrazolyl-4-carbonyl]-amino}-piperidin-1-yl)-3-oxo-propyl]-trimethyl-ammonium benzene sulphonate]
3 | > 9.00 | Cn1c(-c2ccnn2-c2ccc(C#N)cc2)c(C(=O)N[C@H]2CC[C@H](CNC(=O)C[N+](C)(C)C)CC2)c(=O)n1-c1cccc(C(F)(F)F)c1 [Example 54, {[(Trans-4-{[2′-(4-cyano-phenyl)-2-methyl-5-oxo-1-(3-trifluoromethyl-phenyl)-2,5-dihydro-1H,2′H-[3,3′]bipyrazolyl-4-carbonyl]-amino}-cyclohexylmethyl)-carbamoyl]-methyl}-trimethyl-ammonium benzene sulphonate]
4 | > 9.00 | C[C@H](NC(=O)c1c(-c2ccnn2-c2ccc(C#N)cc2)n(C)n(-c2cccc(C(F)(F)F)c2)c1=O)c1nnc(CN(C)C)o1 [Example 8, 2′-(4-Cyano-phenyl)-2-methyl-5-oxo-1-(3-trifluoromethyl-phenyl)-2,5-dihydro-1H,2′H-[3,3′]bipyrazolyl-4-carboxylic acid [(S)-1-(5-dimethylaminomethyl-[1,3,4]oxadiazol-2-yl)-ethyl]-amide]
5 | > 9.00 | Cn1c(-c2ccnn2-c2ccc(C#N)cc2)c(C(=O)NC(C)(C)c2ncc(C[N+](C)(C)C)o2)c(=O)n1-c1cccc(C(F)(F)F)c1 [Example 48, [2-(1-{[2′-(4-Cyano-phenyl)-2-methyl-5-oxo-1-(3-trifluoromethyl-phenyl)-2,5-dihydro-1H,2′H-[3,3′]bipyrazolyl-4-carbonyl]-amino}-1-methyl-ethyl)-oxazol-5-ylmethyl]-trimethyl-ammonium benzene sulphonate]
6 | > 9.00 | Cn1c(-c2ccnn2-c2ccc(C#N)cc2)c(C(=O)NC2CC[N+]3(CCCC3)CC2)c(=O)n1-c1cccc(C(F)(F)F)c1 [Example 22, 8-{[2′-(4-Cyano-phenyl)-2-methyl-5-oxo-1-(3-trifluoromethyl-phenyl)-2,5-dihydro-1H,2′H-[3,3′]bipyrazolyl-4-carbonyl]-amino}-5-azonia-spiro[4.5]decane bromide]
7 | > 9.00 | CN1CCC(NC(=O)[C@H]2CC[C@H](NC(=O)c3c(-c4ccnn4-c4ccc(C#N)cc4)n(C)n(-c4cccc(C(F)(F)F)c4)c3=O)CC2)CC1 [Example 12, 2′-(Trans-4-cyano-phenyl)-2-methyl-5-oxo-1-(3-trifluoromethyl-phenyl)-2,5-dihydro-1H,2′H-[3,3′]bipyrazolyl-4-carboxylic acid [4-(1-methyl-piperidin-4-ylcarbamoyl)-cyclohexyl]-amide]
8 | > 9.00 | Cn1c(-c2ccnn2-c2ccc(C#N)cc2)c(C(=O)N[C@H]2CC[C@H](C(=O)NCC[N+](C)(C)C)CC2)c(=O)n1-c1cccc(C(F)(F)F)c1 [Example 42, {2-[(Trans-4-{[2′-(4-cyano-phenyl)-2-methyl-5-oxo-1-(3-trifluoromethyl-phenyl)-2,5-dihydro-1H,2′H-[3,3′]bipyrazolyl-4-carbonyl]-amino}-cyclohexanecarbonyl)-amino]-ethyl}-trimethyl-ammonium benzene sulphonate]
9 | > 9.00 | CN(C)CC(=O)N1CCC(NC(=O)c2c(-c3ccnn3-c3ccc(C#N)cc3)n(C)n(-c3cccc(C(F)(F)F)c3)c2=O)CC1 [Example 6, 2′-(4-Cyano-phenyl)-2-methyl-5-oxo-1-(3-trifluoromethyl-phenyl)-2,5-dihydro-1H,2′H-[3,3′]bipyrazolyl-4-carboxylic acid [1-(2-dimethylamino-acetyl)-piperidin-4-yl]-amide]
10 | > 9.00 | Cc1cc(C[N+](C)(C)C[C@H]2CC[C@H](NC(=O)c3c(-c4ccnn4-c4ccc(C#N)cc4)n(C)n(-c4cccc(C(F)(F)F)c4)c3=O)CC2)n(C)n1 [Example 46, (Trans-4-{[2′-(4-cyano-phenyl)-2-methyl-5-oxo-1-(3-trifluoromethyl-phenyl)-2,5-dihydro-1H,2′H-[3,3′]bipyrazolyl-4-carbonyl]-amino}-cyclohexylmethyl)-(2,5-dimethyl-2H-pyrazol-3-ylmethyl)-dimethyl-ammonium bromide]
11 | 8.00 to 9.00 | Cn1c(-c2ccnn2-c2ccc(C#N)cc2)c(C(=O)NCC[N+](C)(C)C)c(=O)n1-c1cccc(C(F)(F)F)c1 [Example 21, (2-{[2′-(4-Cyano-phenyl)-2-methyl-5-oxo-1-(3-trifluoromethyl-phenyl)-2,5-dihydro-1H,2′H-[3,3′]bipyrazolyl-4-carbonyl]-amino}-ethyl)-trimethyl-ammonium benzene sulphonate]
12 | > 9.00 | C[C@H](NC(=O)c1c(-c2ccnn2-c2ccc(C#N)cc2)n(C)n(-c2cccc(C(F)(F)F)c2)c1=O)c1nnc(C[N+](C)(C)C)o1 [Example 37, [5-((S)-1-{[2′-(4-Cyano-phenyl)-2-methyl-5-oxo-1-(3-trifluoromethyl-phenyl)-2,5-dihydro-1H,2′H-[3,3′]bipyrazolyl-4-carbonyl]-amino}-ethyl)-[1,3,4]oxadiazol-2-ylmethyl]-trimethyl-ammonium benzene sulphonate]
13 | > 9.00 | Cn1c(-c2ccnn2-c2ccc(C#N)cc2)c(C(=O)NC2C[C@H]3CC[C@@H](C2)[N+]3(C)C)c(=O)n1-c1cccc(C(F)(F)F)c1 (stereo partly drawn) [Example 28, (1S,3S,5R)-3-{[2′-(4-Cyano-phenyl)-2-methyl-5-oxo-1-(3-trifluoromethyl-phenyl)-2,5-dihydro-1H,2′H-[3,3′]bipyrazolyl-4-carbonyl]-amino}-8,8-dimethyl-8-azonia-bicyclo[3.2.1]octane benzene sulphonate]
14 | > 9.00 | C[C@H](NC(=O)c1c(-c2ccnn2-c2ccc(C#N)cc2)n(C)n(-c2cccc(C(F)(F)F)c2)c1=O)C(=O)N(C)CC1CCN(C)CC1 [Example 7, 2′-(4-Cyano-phenyl)-2-methyl-5-oxo-1-(3-trifluoromethyl-phenyl)-2,5-dihydro-1H,2′H-[3,3′]bipyrazolyl-4-carboxylic acid {(S)-1-[methyl-(1-methyl-piperidin-4-ylmethyl)-carbamoyl]-ethyl}-amide]
15 | > 9.00 | Cc1cc(C[N+](C)(C)CC(=O)N2CCC(NC(=O)c3c(-c4ccnn4-c4ccc(C#N)cc4)n(C)n(-c4cccc(C(F)(F)F)c4)c3=O)CC2)no1 [Example 50, [2-(4-{[2′-(4-Cyano-phenyl)-2-methyl-5-oxo-1-(3-trifluoromethyl-phenyl)-2,5-dihydro-1H,2′H-[3,3′]bipyrazolyl-4-carbonyl]-amino}-piperidin-1-yl)-2-oxo-ethyl]-dimethyl-(5-methyl-isoxazol-3-ylmethyl)-ammonium chloride]
16 | > 9.00 | Cn1cc[n+](C[C@H]2CC[C@H](NC(=O)c3c(-c4ccnn4-c4ccc(C#N)cc4)n(C)n(-c4cccc(C(F)(F)F)c4)c3=O)CC2)c1 [Example 70, 1-(4-{[2′-(4-Cyano-phenyl)-2-methyl-5-oxo-1-(3-trifluoromethyl-phenyl)-2,5-dihydro-1H,2′H-[3,3′]bipyrazolyl-4-carbonyl]-amino}-cyclohexylmethyl)-3-methyl-3H-imidazol-1-ium bromide]
17 | > 9.00 | Cn1c(-c2ccnn2-c2ccc(C#N)cc2)c(C(=O)N[C@H]2C[C@H](C(=O)NC3CC[N+](C)(C)CC3)C2)c(=O)n1-c1cccc(C(F)(F)F)c1 [Example 55, 4-[(Trans-3-{[2′-(4-cyano-phenyl)-2-methyl-5-oxo-1-(3-trifluoromethyl-phenyl)-2,5-dihydro-1H,2′H-[3,3′]bipyrazolyl-4-carbonyl]-amino}-cyclobutanecarbonyl)-amino]-1,1-dimethyl-piperidinium benzene sulphonate]
18 | > 9.00 | CN(CC1CC[N+](C)(C)CC1)C(=O)C(C)(C)NC(=O)c1c(-c2ccnn2-c2ccc(C#N)cc2)n(C)n(-c2cccc(C(F)(F)F)c2)c1=O [Example 40, 4-{[(2-{[2′-(4-Cyano-phenyl)-2-methyl-5-oxo-1-(3-trifluoromethyl-phenyl)-2,5-dihydro-1H,2′H-[3,3′]bipyrazolyl-4-carbonyl]-amino}-2-methyl-propionyl)-methyl-amino]-methyl}-1,1-dimethyl-piperidinium benzene sulphonate]
19 | > 9.00 | Cc1cc(C[N+](C)(C)Cc2cnc([C@H](C)NC(=O)c3c(-c4ccnn4-c4ccc(C#N)cc4)n(C)n(-c4cccc(C(F)(F)F)c4)c3=O)o2)no1 [Example 32, [2-((S)-1-{[2′-(4-Cyano-phenyl)-2-methyl-5-oxo-1-(3-trifluoromethyl-phenyl)-2,5-dihydro-1H,2′H-[3,3′]bipyrazolyl-4-carbonyl]-amino}-ethyl)-oxazol-5-ylmethyl]-dimethyl-(5-methyl-isoxazol-3-ylmethyl)-ammonium chloride]
